The record followed here is ChEMBL document CHEMBL1201862, “PubChem BioAssay data set” (2004).

Each structure is given as a SMILES string.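 Assay format: 96-well plates, 48-hour exposure. The concentration for 50% growth inhibition is given as GI50.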 Activity calls are given as the source filed them. Cut-off read from the data, not from the text of the source: active = GI50 up to about 1.1 µM and inactive = higher.

Some test systems named below: A549; CCRF-CEM; EKVX; HCC 2998; HOP-92; K562; LOX IMVI; Malme-3M; OVCAR-5; RPMI-8226; SF-539; SK-MEL-5; SNB-19; SW-620; U-251; NCI-H522.
Holding throughout (assay): growth of human tumour cells (NCI), 48 h

Consider `Cc1ccc(S(=O)(=O)N/N=C/C(C)C)cc1`, for which the GI50 in the assay with A549 was > 100 µM (inactive); in the assay with CCRF-CEM, > 100 µM (inactive); in the assay with EKVX, > 100 µM (inactive); with HCC 2998 it was > 100 µM (inactive); with HOP-92 it was 24.9 µM (inactive); with K562, > 100 µM (inactive). Moreover, the GI50 with LOX IMVI, in the assay on Malme-3M, in the assay on OVCAR-5, with RPMI-8226, with SF-539 and with SK-MEL-5 was > 100 µM (inactive) throughout. For the same compound, the GI50 with SNB-19, in the assay with SW-620 and in the assay with U-251 was > 100 µM (inactive) throughout.
Consider `CCOC(=O)Cn1c(=O)[nH]c(=O)c2[nH]cnc21`, for which the GI50 in the assay with A549, in the assay on CCRF-CEM, in the assay on EKVX, in the assay with HCC 2998, with K562 and with LOX IMVI was > 100 µM (inactive) in each case. Moreover, the GI50 in the assay on Malme-3M, in the assay with NCI-H522, with OVCAR-5, in the assay on SF-539, in the assay with SK-MEL-5 and with SNB-19 was > 100 µM (inactive) each time. The GI50 with SW-620 and in the assay on U-251 was > 100 µM (inactive) in each case.
Turning to `Cc1cccc(-c2nc3c(C(=O)NCCN(C)C)cccc3[nH]2)c1`, the GI50 in the assay on A549 was 1.1 µM (active); in the assay on CCRF-CEM, 1.02 µM (active); in the assay with EKVX, 1.46 µM (inactive); with HCC 2998 it was 1 µM (active); in the assay on HOP-92 it was 1.28 µM (inactive); in the assay with K562, 0.863 µM (active). Further, the GI50 was 0.708 µM (active) in the assay on LOX IMVI; 1.88 µM (inactive) with OVCAR-5; 3.12 µM (inactive) in the assay with RPMI-8226; 0.724 µM (active) in the assay on SF-539; 1.65 µM (inactive) with SK-MEL-5; 1.98 µM (inactive) in the assay with SNB-19. For the same compound, the GI50 with SW-620 is 0.352 µM (active); with U-251, 1.49 µM (inactive).
Regarding `Cc1c(NC(=O)C(C)(C)Br)c(=O)oc2c(C)c3occc(=O)c3cc12`, the GI50 was 68.5 µM (inactive) in the assay with A549; 28.2 µM (inactive) with CCRF-CEM; > 100 µM (inactive) in the assay with EKVX; > 100 µM (inactive) in the assay with HCC 2998; 64.3 µM (inactive) in the assay with K562; 76.9 µM (inactive) in the assay with LOX IMVI. The GI50 with Malme-3M is 31.1 µM (inactive); in the assay on RPMI-8226, 45.3 µM (inactive); in the assay with SF-539, 43.7 µM (inactive); with SK-MEL-5 it was 29.7 µM (inactive); in the assay with SNB-19, 87.9 µM (inactive); in the assay with SW-620 it was > 100 µM (inactive). Further, the GI50 in the assay with U-251 is 72.9 µM (inactive).
Regarding `Cc1[nH]c2ccccc2c1/C=C/c1c(C)[nH]c2ccccc12`, the GI50 in the assay with A549 is > 100 µM (inactive); in the assay with CCRF-CEM, 20.7 µM (inactive); in the assay on EKVX it was > 100 µM (inactive); with HCC 2998, > 100 µM (inactive); in the assay on K562, > 100 µM (inactive); in the assay on Malme-3M, > 100 µM (inactive). In addition, the GI50 with OVCAR-5, in the assay on RPMI-8226, in the assay with SF-539, in the assay with SK-MEL-5, in the assay with SW-620 and in the assay on U-251 was > 100 µM (inactive) in each case.
Turning to `COc1ccc(-c2cc(C(=O)Nc3cc(C(F)(F)F)cc(C(F)(F)F)c3)c3ccccc3n2)cc1`, the GI50 is 4.71 µM (inactive) in the assay on A549; 7.6 µM (inactive) in the assay on CCRF-CEM; 9.06 µM (inactive) with EKVX; 11.4 µM (inactive) in the assay with HCC 2998; 4.89 µM (inactive) with K562; 13.4 µM (inactive) in the assay with LOX IMVI. Besides, the GI50 in the assay with Malme-3M is 17.9 µM (inactive); with OVCAR-5, 24.7 µM (inactive); in the assay on RPMI-8226, 6.27 µM (inactive); with SF-539, 12.3 µM (inactive); with SK-MEL-5, 18 µM (inactive); in the assay on SW-620 it was 7.94 µM (inactive). Also, the GI50 in the assay on U-251 was 4.28 µM (inactive).
